In series [1] the target is T1, dehaloperoxidase B (DHP-B; DHP) (Amphitrite ornata, UniProt Q9NAV7).
T1 construct: homodimer in the asymmetric unit
As to the kind of experiment: SFX crystal structure, room temperature, […] A. The format is binding. The conditions noted are these: 3-5 min, distal heme pocket, not bound to iron.

Series [2] addresses Dye-type peroxidase Aa from Streptomyces lividans (Streptomyces lividans). The series is described as follows: crystal structure; serial femtosecond crystallography at room temperature, microcrystals on silicon fixed-target chips, SACLA beamline BL2 EH3; two monomers (homodimer) in the crystallographic asymmetric unit.
Series [3] concerns the molecule itself. The series is described as above.

Consider `Brc1ccc2[nH]ccc2c1` [5-bromoindole], for which the “SFX crystal structure, room temperature, 1.85 A” value in series [1] (crystals pH 6.0, soaked 50 mM, lower occupancy in second monomer) is recorded as “the 5BR complex was consistent with a computationally hypothesized binding site”.

`Oc1ccc(Cl)cc1Cl` [2,4-dichlorophenol]: the “SFX crystal structure, room temperature, 1.85 A” value in series [1] (crystals pH 6.0, soaked 5 mM, near-full occupancy in monomer B) was “DCP exhibited a binding site that was virtually identical to those previously observed”.

Broadly, the stoichiometry N is the number of molecules, sites or subunits per partner or assembly. Turning to “Dye-type peroxidase Aa from Streptomyces lividans (enzyme)”, the stoichiometry N in series [2] is 2.

B1: Dehaloperoxidase B from Amphitrite ornata (enzyme)
chain: GFKQDIATLRGDLRTYAQDIFLAFLNKYPDEKRNFKNYVGKSDQELKSMAKFGDHTEKVFNLMMEVADRATDCVPLASDASTLVQMKQHSGLTTGNFEKLFVALVEYMRASGQSFDSQSWDRFGKNLVSALSSAGMK
notes: Dehaloperoxidase B (DHP-B), heme peroxidase from the marine annelid Amphitrite ornata; Heme protein; Crystallised with the small ligands DCP or 5BR soaked in; also called DHP-B; DHP; source: expressed and purified as described previously (McCombs, Moreno-Chicano et al., 2017)
For B1, the “stoichiometry N” value in series [3] amounted to 2.
